Patent US20090291973A1, “Novel Quinazoline Derivatives and Their Medical Use” (NeuroSearch A/S, priority 2005, published 2009)

Experiments:
human Kv72+3 channels = molecular target: T1, human Kv72+3 channels (Homo sapiens, UniProt O43525+O43526); assay: patch-clamp, HEK293 cell lines stably expressing the human Kv72+3 channels; format: cell-based; conditions: 3 μM, HEK293 cells stably expressing human Kv72+3 channels
T1 construct: expressed in transfected cells

For CC(C)c1nc2ccccc2c(=O)n1NC(=O)C(C)c1cccc(F)c1 (centres unmarked) [Compound B16, 2-(3-Fluoro-phenyl)-N-(2-isopropyl-4-oxo-4H-quinazolin-3-yl)-propionamide], the “activation compared to control” value (human Kv72+3 channels) was 60%.
Work on CC(C)c1nc2ccccc2c(=O)n1NC(=O)C(c1ccccc1)C(C)C (centres unmarked) [Compound B2, N-(2-Isopropyl-4-oxo-4H-quinazolin-3-yl)-3-methyl-2-phenyl-butyramide] yielded a melting point of 188 to 193 °C.
For COc1ccc(C(C)C(=O)Nn2c(C(C)C)nc3cc(C(F)(F)F)ccc3c2=O)cc1 (centres unmarked) [Compound B20, N-(2-Isopropyl-4-oxo-7-trifluoromethyl-4H-quinazolin-3-yl)-2-(4-methoxy-phenyl)-propionamide], the “activation compared to control” value (human Kv72+3 channels) was 87%.
Work on CC(C)c1nc2ccccc2c(=O)n1NC(=O)C(C)c1ccccc1 (centres unmarked) [Compound B1, N-(2-Isopropyl-4-oxo-4H-quinazolin-3-yl)-2-phenyl-propionamide] yielded a melting point of 48 to 55 °C.
With CCc1nc2cc(F)ccc2c(=O)n1NC(=O)C(C)c1ccccc1 (centres unmarked) [Compound A1, N-(2-Ethyl-7-fluoro-4-oxo-4H-quinazolin-3-yl)-2-phenyl-propionamide] the melting point was 57 to 63 °C.
